The test system of data set [1] is DLD-1 cells. The data set can be described thus: Cell penetration assay of FITC-labelled Axin analogues (confocal imaging). Conditions: 10 μM. Type of data set: cell-based.
Experimental: Images were analyzed with NIH ImageJ software.
Cell Penetration Assay: DLD-1 cells were seeded on 35 mm optical dishes at 3e5 per well and were incubated overnight at 37° C./5% CO2. […] Cells were imaged in buffer mimicking the physiological conditions in the cytoplasm (20 mM HEPES, 110 mM KOAc, 5 mM NaOAc, 2 mM MgOAc, 1 mM EGTA, pH 7.3).
The test system of data set [2] is DLD-1 cells. The following applies: literature; cited from earlier work.

Take `CC[C@H](C)[C@@H]1NC(=O)[C@@](C)(NC(=O)[C@H](CCC(N)=O)NC(=O)[C@@H]2CCCN2C(=O)[C@H](Cc2c[nH]c3ccccc23)NC(=O)[C@H](CCCNC(=N)N)NC(=O)COCCOCCNC(=S)Nc2ccc3c(c2)C(=O)OC32c3ccc(O)cc3Oc3cc(O)ccc32)CCCC=CCCC[C@@](C)(C(=O)N[C@@H](Cc2c[nH]cn2)C(=O)N[C@H](C(=O)N[C@@H](CCCNC(=N)N)C(=O)N[C@@H](CCCNC(=N)N)C(=O)N[C@H](C(=O)N[C@@H](Cc2c[nH]c3ccccc23)C(=O)N[C@@H](CCCNC(=N)N)C(N)=O)C(C)C)C(C)C)NC(=O)[C@H](CC(=O)O)NC(=O)[C@H](CC(C)C)NC1=O` [Peptide 51, reference compound]: the “cellular uptake by confocal fluorescence microscopy (in words)” value with DLD-1 cells [1] was “much weaker fluorescence”. Further, the “reported cell permeability to DLD-1 cells” value in the data set on DLD-1 cells [2] is recorded as “limited cell permeability”.

(Values after patent publication US20230138393A1, “LINKING AMINO ACID SEQUENCES, MANUFACTURING METHOD THEREOF, AND USE THEREOF” (priority 2020, published 2023).)
